Test results published in PubChem BioAssay (NCI).
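Five compound concentrations were applied to cells in 96-well plates for 48 hours; endpoints were derived by simple linear interpolation of the resulting dose-response curve. At the TGI there is no net growth.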

Tests used:
Assay in all cases: NCI-60 cell line screen, 48 h
OVCAR-4 ovarian = tested on: OVCAR-4 ovarian
SK-OV-3 ovarian = tested on: SK-OV-3 ovarian
SNB-75 CNS = tested on: SNB-75 CNS
BT-549 breast = tested on: BT-549 breast
RPMI-8226 leukemia = tested on: RPMI-8226 leukemia
MCF7 breast = tested on: MCF7 breast
HT29 colon = tested on: HT29 colon
SF-539 CNS = tested on: SF-539 CNS
OVCAR-5 ovarian = tested on: OVCAR-5 ovarian
ACHN renal = tested on: ACHN renal

With `NC(Cc1ccccc1)C(=O)O` (stereo not given) the TGI (OVCAR-4 ovarian) was over 100 µM, the TGI (SK-OV-3 ovarian) was over 100 µM and the TGI (SNB-75 CNS) was over 100 µM. For the same molecule, the TGI (BT-549 breast) was over 100 µM, the TGI (RPMI-8226 leukemia) was over 100 µM and the TGI (MCF7 breast) was over 100 µM. For the same molecule, the TGI (HT29 colon) was over 100 µM, the TGI (SF-539 CNS) was over 100 µM and the TGI (OVCAR-5 ovarian) was over 100 µM. The TGI (ACHN renal) was over 100 µM.

In the case of `Cc1ccc2c(=O)c3c(O)c4c(cc3n(C)c2c1)OC(C)(C)C=C4`, the TGI (OVCAR-4 ovarian) is reported as over 10 µM, the TGI (SK-OV-3 ovarian) is reported as over 10 µM and the TGI (SNB-75 CNS) is reported as over 10 µM. The TGI (BT-549 breast) was over 10 µM, the TGI (RPMI-8226 leukemia) was over 10 µM and the TGI (MCF7 breast) was over 10 µM. The TGI (HT29 colon) was over 10 µM, the TGI (SF-539 CNS) was over 10 µM and the TGI (OVCAR-5 ovarian) was over 10 µM. It also gave a TGI (ACHN renal) of over 10 µM.

Work on `C[N+](C)(C)c1nc(N)nc2c1ncn2C1OC(CO)C(O)C1O` (stereo not given) yielded a TGI (OVCAR-4 ovarian) of over 100 µM, a TGI (SK-OV-3 ovarian) of over 100 µM and a TGI (SNB-75 CNS) of over 100 µM. For the same molecule, the TGI (BT-549 breast) was over 100 µM, the TGI (RPMI-8226 leukemia) was over 100 µM and the TGI (MCF7 breast) was over 100 µM. It also gave a TGI (HT29 colon) of over 100 µM, a TGI (SF-539 CNS) of over 100 µM and a TGI (OVCAR-5 ovarian) of over 100 µM. For the same molecule, the TGI (ACHN renal) was over 100 µM.

In the case of `CCCCCCCCCCCOCCC1C(C(C)OCCN2CCCC2)OC2OC(C)(C)OC21` (stereo not given), the TGI (OVCAR-4 ovarian) is reported as 22.3 µM, the TGI (SK-OV-3 ovarian) is reported as 8.96 µM and the TGI (SNB-75 CNS) is reported as 7.07 µM. For the same molecule, the TGI (BT-549 breast) was 7.76 µM, the TGI (RPMI-8226 leukemia) was 3.17 µM and the TGI (MCF7 breast) was 6.58 µM. The TGI (HT29 colon) was 3.5 µM, the TGI (SF-539 CNS) was 3.68 µM and the TGI (OVCAR-5 ovarian) was 8.94 µM. The TGI (ACHN renal) was 10.8 µM.

Work on `COc1cc(/C=C/C=C2\CC(C)C/C(=C\C=C\c3ccc(O)c(OC)c3)C2=O)ccc1O` (stereo not given) yielded a TGI (OVCAR-4 ovarian) of 39.9 µM, a TGI (SK-OV-3 ovarian) of 18.2 µM and a TGI (SNB-75 CNS) of 32.3 µM. For the same molecule, the TGI (BT-549 breast) was 27.3 µM, the TGI (RPMI-8226 leukemia) was 48.1 µM and the TGI (MCF7 breast) was 42 µM. The TGI (HT29 colon) was 31 µM, the TGI (SF-539 CNS) was 82.3 µM and the TGI (OVCAR-5 ovarian) was 28.8 µM. For the same molecule, the TGI (ACHN renal) was 40.8 µM.

`Cc1nc2ccccc2n1CCc1nc2ccccc2[nH]1` gave a TGI (OVCAR-4 ovarian) of over 100 µM, a TGI (SK-OV-3 ovarian) of over 100 µM and a TGI (SNB-75 CNS) of over 100 µM. The TGI (BT-549 breast) was over 100 µM, the TGI (RPMI-8226 leukemia) was over 100 µM and the TGI (MCF7 breast) was over 100 µM. It also gave a TGI (HT29 colon) of over 100 µM, a TGI (SF-539 CNS) of over 100 µM and a TGI (OVCAR-5 ovarian) of over 100 µM. The TGI (ACHN renal) was over 100 µM.

Work on `COc1ccc(/C=C(\C#N)c2nc(-c3cc4ccccc4oc3=O)cs2)cc1` yielded a TGI (OVCAR-4 ovarian) of 58.8 µM, a TGI (SK-OV-3 ovarian) of 36.6 µM and a TGI (SNB-75 CNS) of 59.5 µM. The TGI (BT-549 breast) was 30.3 µM, the TGI (RPMI-8226 leukemia) was over 100 µM and the TGI (MCF7 breast) was over 100 µM. For the same molecule, the TGI (HT29 colon) was over 100 µM, the TGI (SF-539 CNS) was 54.9 µM and the TGI (OVCAR-5 ovarian) was over 100 µM. For the same molecule, the TGI (ACHN renal) was 42.2 µM.

For `Cc1cc(C(C)(C)C)c(OCCCN2CCOCC2)c(C(C)(C)C)c1`, the TGI (OVCAR-4 ovarian) was 31.5 µM, the TGI (SK-OV-3 ovarian) was 35.6 µM and the TGI (SNB-75 CNS) was 32.6 µM. It also gave a TGI (BT-549 breast) of 31.9 µM, a TGI (RPMI-8226 leukemia) of 34.8 µM and a TGI (MCF7 breast) of 33.6 µM. It also gave a TGI (HT29 colon) of 32.7 µM, a TGI (SF-539 CNS) of 33.7 µM and a TGI (OVCAR-5 ovarian) of 33 µM. For the same molecule, the TGI (ACHN renal) was 31.2 µM.
